Assays:
[1] = tested on: levodopa-induced dyskinesia model cynomolgus monkeys; assay: Test Example 3: dyskinesia score in levodopa-induced dyskinesia model monkeys; type: in vivo; set-up: key to Dyskinesia score: dyskinesia score 0 = normal home cage activity to 4 = severe stereotypy; settings: Istradefylline 60 mg/kg (G4)
Procedure: A levodopa/carbidopa mixture containing 80 mg/kg of levodopa and 20 mg/kg of carbidopa and having a solution volume of 5 mL/kg was orally administered to Parkinson's disease model cynomolgus monkeys at the age of 6 to 7 prepared in the same way as in Test Example 1 for 8 consecutive days to provide levodopa-induced dyskinesia model cynomolgus monkeys. The induction of dyskinesia was determined based on the “dyskinesia score” in accordance with the following behavior evaluation items in the following test on activity in home cages, and animals having dyskinesia scores of 1 or more on day 7 of the repeated administration of the levodopa/carbidopa mixture were used.
Home cage activities corresponding to dyskinesia scores • 0: Normal home cage activity (exploring or inactivity, able to drink water, plays with mirror or caging, climbing of the walls). • 1: Some interference with normal activity, however able to climb walls. • 2: Occasional exploration of cage, some stereotypy • 3: Little normal movement, lack of climbing of walls, clear stereotypy • 4: Lack of normal home cage activity, lack of normal exploratory behavior and movement, severe stereotypy
Seven levodopa-induced dyskinesia model cynomolgus monkeys were randomized into 4 groups of approximately equal mean and variance in terms of body weight. On subsequent cycles 2, 3, and 4, the animals were crossed over to receive the other treatment. A wash out period of one week or more was set between cycles.
One of the seven animals was excluded from the evaluation of cycles 3 and 4 because it was unable to get up due to dyskinesia on day 8 in cycle 3 of the repeated administration of the levodopa/carbidopa mixture.
By the end of the study, each animal had received all the four treatments. Each substance was administered 1 hr. after the administration on day 8 of the repeated administration of the levodopa/carbidopa mixture. As a vehicle, an aqueous solution containing 0.43% (w/v) methyl cellulose 400, 10% (v/v) dimethyl sulfoxide (DMSO), and 4.5% (w/v) Cremophor (R) were used.
(§1) Before the administration, and 1 hr., 4 hrs., and 24 hrs. after the administration of the test substances, the dyskinesia scores of the animals were evaluated. The behavior evaluation was performed in a blinded manner. The dyskinesia scores of the groups were compared using Steel's test. The p-values of less than 0.05 were considered to be statistically significant.

[2] = tested on: Parkinson's disease model cynomolgus monkeys (MPTP); assay: Test Example 1: NDSs after administration of Compound (I) alone in MPTP Parkinson's disease model monkeys; type: in vivo; set-up: key to Subgroup 2: Specific motor functions score: specific motor functions subscore, range 0-21; settings: Istradefylline 60 mg/kg (G5)
Procedure: (§2) The therapeutic effect of Compound (I) on Parkinson's disease was examined using Parkinson's disease model animals which are produced by administering MPTP (1-methyl-4-phenyl-1,2,3,6-tetrahydropyridine).
MPTP was administered to male cynomolgus monkeys at the age of 4 to 5 to make Parkinson's disease model cynomolgus monkeys. MPTP was additionally administered to animals with neurologic deficit scores (Neurological deficit scores: NDSs, Schneider et al., “Development of levodopa-induced dyskinesias in parkinsonian monkeys may depend upon rate of symptom onset and/or duration of symptoms”, Brain Res., 2003, 990:38-44.) of less than 25.
Eight Parkinson's disease model cynomolgus monkeys were randomized into 5 groups of approximately equal mean and variance in terms of Parkinson behavior rating (Tremor score) and body weight. On subsequent cycle 2, cycle 3, cycle 4 and cycle 5, the animals were crossed over to receive the other treatments. A wash out period of one week or more was set between each cycle.
By the end of the study, each animal had received all the five treatments. Istradefylline is an adenosine A2A receptor antagonist approved as a drug for improving a wearing off phenomenon in Parkinson's disease being treated with a levodopa-containing preparation in the United States of America and Japan (Patent Literature 4). As a vehicle, an aqueous solution containing 0.43% (w/v) methyl cellulose 400, 10% (v/v) dimethyl sulfoxide (DMSO), and 4.5% (w/v) Cremophor (R) was used.
as §1, with “NDSs” for “dyskinesia scores”, “monkeys” for “animals”, “evaluated. The evaluation items are as follows.” for “evaluated.”
Subgroup 1: generalized behaviors (0-32) • 1.1a Appetite • 0: Normal • 1: Up to 30% food left • 2: Up to 65% food left • 3: Greater than 65% food left • 1.1b Response to offered food • 0: Responds to offered food • 1: Inconsistent response to offered food • 2: Little to no interest in offered food • 1.2 Overall activity • 0: Normal • 1: Mild hypokinesia; decrease in spontaneous movement • 2: Moderate hypokinesia; sparse spontaneous movement • 3: Severe hypokinesia; no spontaneous movement; tends to remain in one place • 1.3 Appearance • 0: Normal • 1: Mild but noticeable decrease in self-maintenance • 2: Moderate decrease in self-maintenance • 3: Severe lack of self-maintenance • 1.4 Posture • 0: Normal • 1: Minor flexing or stooping • 2: Moderate flexing or stooping; head and upper body almost parallel to floor of cage • 3: Severe flexing or stooping; head lowered to feet • 1.5 Balance • 0: Normal • 1: Mild loss on arising or movement • 2: Moderate loss on arising or movement; occasionally falls or supports self to keep from falling • 3: Severe loss of balance; falls • 1.6 Climbing • 0: Climbing observed with no delays in initiation/execution • 1: Mild deficit in ability to climb and support weight • 2: Moderate deficit in ability to climb and support weight; tends to ‘slide down’ • 3: Absence of any climbing behavior • 1.7 Tremor • 0: Absent • 1: Slight and intermittent • 2: Slight and persistent or moderate and intermittent • 3: Moderate/severe and persistent • 1.8 Freezing during movement • 0: Absent • 1: Occasional freezing for brief periods • 2: Occasional freezing for prolonged periods or frequent freezing for brief periods • 3: Prolonged and frequent freezing • 1.9 Facial expression • 0: Normal • 1: Mild hypomimia • 2: Moderate hypomimia • 3: Severe, masked fixed faces • 1.10 Defense reaction • 0: Normal • 1: Mild, noticeable reduction in reaction or slowed reaction, but can be provoked to react • 2: Moderate reduction in reaction; can produce facial display but not body reaction • 3: Little to no response
Subgroup 2: Specific Motor Functions (0-21)

[3] = tested on: Parkinson's disease model cynomolgus monkeys (MPTP); assay: Test Example 2: NDSs after combined administration of Compound (I) and levodopa in MPTP Parkinson's disease model monkeys; type: in vivo
Text: as §2
Parkinson's disease model cynomolgus monkeys were provided in the same way as in Test Example 1, and the therapeutic effect of the combined administration of Compound (I) and levodopa was examined.
By the end of the study, each animal had received all the five treatments. As a vehicle, an aqueous solution containing 0.43% (w/v) methyl cellulose 400, 10% (v/v) dimethyl sulfoxide (DMSO), and 4.5% (w/v) Cremophor (R) was used.
Before the administration, and 1 hr., 4 hrs., and 24 hrs. after the administration of the test substances, the NDSs of the monkeys were evaluated. The evaluation items and the evaluation methods are the same as in Test Example 1.

[4] = tested on: Parkinson's disease mouse model; settings: pre-onset treatment; cited from earlier work
[5] = Levodopa 5 mg/kg (G3), 1 hr. after administration
[6] = Levodopa 5 mg/kg (G3), 4 hrs. after administration
[7] = Levodopa 5 mg/kg (G3), 24 hrs. after administration
[8] = Levodopa 5 mg/kg (G3), Pre (before administration)
[9] = Levodopa 10 mg/kg (G2), 1 hr. after administration
[10] = Levodopa 10 mg/kg (G2), 4 hrs. after administration
[11] = Levodopa 10 mg/kg (G2), 24 hrs. after administration
[12] = Levodopa 10 mg/kg (G2), Pre (before administration)

CCn1c(=O)c2c(nc(/C=C/c3ccc(OC)c(OC)c3)n2C)n(CC)c1=O [Istradefylline, reference compound]
Dyskinesia score ([1]; 1 hr. after administration): 1.8 ± 0.2
Dyskinesia score ([1]; 4 hrs. after administration): 1.8 ± 0.2
Dyskinesia score ([1]; 24 hrs. after administration): 1.8 ± 0.2
Dyskinesia score ([1]; Pre (before administration)): 1.7 ± 0.2
Subgroup 1: GENERALIZED BEHAVIORS score ([2]; 1 hr. after administration): 16.1 ± 0.9
Subgroup 2: Specific motor functions score ([2]; 1 hr. after administration): 12.3 ± 0.8
Total score of NDSs ([2]; 1 hr. after administration): 28.4 ± 1.6
Tremor score ([2]; 1 hr. after administration): 1.8 ± 0.2
Subgroup 1: GENERALIZED BEHAVIORS score ([2]; 4 hrs. after administration): 14.5 ± 0.6
Subgroup 2: Specific motor functions score ([2]; 4 hrs. after administration): 10.9 ± 0.5
Total score of NDSs ([2]; 4 hrs. after administration): 25.4 ± 1.0
Tremor score ([2]; 4 hrs. after administration): 1.6 ± 0.2
Subgroup 1: GENERALIZED BEHAVIORS score ([2]; 24 hrs. after administration): 15.9 ± 0.9
Subgroup 2: Specific motor functions score ([2]; 24 hrs. after administration): 12.1 ± 0.5
Total score of NDSs ([2]; 24 hrs. after administration): 28.0 ± 1.2
Tremor score ([2]; 24 hrs. after administration): 1.6 ± 0.2
Subgroup 1: GENERALIZED BEHAVIORS score ([2]; Pre (before administration)): 17.4 ± 0.9
Subgroup 2: Specific motor functions score ([2]; Pre (before administration)): 13.5 ± 0.4
Total score of NDSs ([2]; Pre (before administration)): 30.9 ± 1.3
Tremor score ([2]; Pre (before administration)): 2.1 ± 0.1

N[C@@H](Cc1ccc(O)c(O)c1)C(=O)O [Levodopa, levodopa]
Subgroup 1: GENERALIZED BEHAVIORS score [3, 5]: 14.0 ± 0.7
Subgroup 2: Specific motor functions score [3, 5]: 11.0 ± 0.9
Total score of NDSs [3, 5]: 25.0 ± 1.6
Tremor score [3, 5]: 1.5 ± 0.2
Subgroup 1: GENERALIZED BEHAVIORS score [3, 6]: 15.0 ± 0.9
Subgroup 2: Specific motor functions score [3, 6]: 11.9 ± 0.8
Total score of NDSs [3, 6]: 26.9 ± 1.7
Tremor score [3, 6]: 1.8 ± 0.2
Subgroup 1: GENERALIZED BEHAVIORS score [3, 7]: 17.0 ± 0.7
Subgroup 2: Specific motor functions score [3, 7]: 13.6 ± 0.5
Total score of NDSs [3, 7]: 30.6 ± 1.1
Tremor score [3, 7]: 2.0 ± 0.0
Subgroup 1: GENERALIZED BEHAVIORS score [3, 8]: 17.4 ± 0.7
Subgroup 2: Specific motor functions score [3, 8]: 14.3 ± 0.5
Total score of NDSs [3, 8]: 31.6 ± 1.1
Tremor score [3, 8]: 2.0 ± 0.0
Subgroup 1: GENERALIZED BEHAVIORS score [3, 9]: 13.5 ± 0.9
Subgroup 2: Specific motor functions score [3, 9]: 10.9 ± 0.5
Total score of NDSs [3, 9]: 24.4 ± 1.2
Tremor score [3, 9]: 1.4 ± 0.2
Subgroup 1: GENERALIZED BEHAVIORS score [3, 10]: 15.0 ± 0.7
Subgroup 2: Specific motor functions score [3, 10]: 12.3 ± 0.5
Total score of NDSs [3, 10]: 27.3 ± 1.0
Tremor score [3, 10]: 1.4 ± 0.2
Subgroup 1: GENERALIZED BEHAVIORS score [3, 11]: 17.6 ± 0.7
Subgroup 2: Specific motor functions score [3, 11]: 14.0 ± 0.5
Total score of NDSs [3, 11]: 31.6 ± 1.0
Tremor score [3, 11]: 2.0 ± 0.0
Subgroup 1: GENERALIZED BEHAVIORS score [3, 12]: 17.8 ± 0.6
Subgroup 2: Specific motor functions score [3, 12]: 13.9 ± 0.4
Total score of NDSs [3, 12]: 31.6 ± 0.8
Tremor score [3, 12]: 2.0 ± 0.0

Cc1ccsc1C(=CCCN1CCC[C@@H](C(=O)O)C1)c1sccc1C [tiagabine]
effect on nigrostriatal axis and motor dysfunction [4]: partially protects nigrostriatal axis to ameliorate motor dysfunction
